Test results as given in US20250057909A1, “NOVEL USE OF ALANYL-GLUTAMINE AND OPHTHALMIC COMPOSITION COMPRISING ALANYL-GLUTAMINE” (SEINDA PHARMACEUTICAL GUANGZHOU CORPORATION, priority 2021, published 2025).
Marks after values point to notes of the source that are not given here.

Experiments:
corneal cells = assay: Vitro model of corneal ulcer: growth of corneal cells in culture in vitro; assay type: cell-based, ICR mice; conditions: cornea of immunised mice co-cultured with autologous leukocytes
Protocol: The rabbit corneas were taken and cut into pieces, 5-10 times volume of 5% triton solution was added and homogenized until there were no lumpy particles, then centrifuged at 3000 r/min for 10 min, and the supernatant was taken. 5 ml of the supernatant was taken and mixed with 5 ml of complete Freund's adjuvant to prepare a mixed solution for later use.
SPF grade ICR mice were divided into normal group, immune group, and cyclophosphamide group, 10 mice/group. The normal group received subcutaneous injection of 0.5 ml of physiological saline per mouse; Each mouse in the immune group and cyclophosphamide group was subcutaneously injected with the mixed solution+physiological saline, the mixed solution+cyclophosphamide 300 mg/kg respectively, and the injection sites were not overlapped; Injection was performed once every other day for a total of 10 times. 3 days after the last injection, the mice were euthanized using the bloodletting method, and the eyeballs were removed and cut into pieces under sterile conditions. At the same time, the cornea and the leukocytes separated from autologous blood were co-cultured in a 24-well culture plate.

guinea pig skin = assay: Skin allergy test
[1] = 1 h after challenge and drug removal
[2] = 24 h after challenge and drug removal
[3] = 48 h after challenge and drug removal

SMILES: O=P1(N(CCCl)CCCl)NCCCO1 (stereo not shown) [cyclophosphamide]
- Growth of corneal cells in culture in vitro, Number (corneal cells; Grow time 72 h): 8
- Growth of corneal cells in culture in vitro, Percentage % (growth rate) (corneal cells; Grow time 72 h): 16.0** %
- Growth of corneal cells in culture in vitro, Number (corneal cells; Grow time 120 h): 11
- Growth of corneal cells in culture in vitro, Percentage % (growth rate) (corneal cells; Grow time 120 h): 22.0** %

SMILES: O=[N+]([O-])c1ccc(Cl)c([N+](=O)[O-])c1 [2,4-dinitrochlorobenzene]
- Average score (guinea pig skin; [1]): 2.2
- Number of allergic animals (guinea pig skin; [1]): 10
- Total score (guinea pig skin; [1]): 22
- Average score (guinea pig skin; [2]): 1.7
- Number of allergic animals (guinea pig skin; [2]): 10
- Total score (guinea pig skin; [2]): 17
- Average score (guinea pig skin; [3]): 1.0
- Number of allergic animals (guinea pig skin; [3]): 10
- Total score (guinea pig skin; [3]): 10
